Reference: the supplement of paper PMC13380429

Assays:
Details in all cases: 72 h
[1] = tested on: Calu-3; assay: cell viability relative to DMSO; higher = less toxic
[2] = tested on: Caco-2; assay: as above
[3] = tested on: Vero E6; assay: as above
[4] = tested on: HepG2; assay: as above
[5] = tested on: Calu-3; assay: drug sensitivity score (DSS) for viability; higher = more toxic; extreme values may be limits of the assay
[6] = tested on: Caco-2; assay: as above
[7] = tested on: Vero E6; assay: as above
[8] = tested on: HepG2; assay: as above
[9] = tested on: Calu-3; assay: relative viability EC50 (midpoint between 100% and the lowest measured viability); higher = less toxic
[10] = tested on: Caco-2; assay: as above
[11] = tested on: Vero E6; assay: as above
[12] = tested on: HepG2; assay: as above
[13] = tested on: U2OS; assay: cell viability relative to DMSO; higher = less toxic
[14] = tested on: U2OS; assay: drug sensitivity score (DSS) for viability; higher = more toxic; extreme values may be limits of the assay
[15] = tested on: U2OS; assay: relative viability EC50 (midpoint between 100% and the lowest measured viability); higher = less toxic

SMILES | cell viability ([1]; 1 nM) | cell viability ([1]; 10 nM) | cell viability ([1]; 100 nM) | cell viability ([1]; 1000 nM) | cell viability ([1]; 10000 nM) | cell viability ([2]; 1 nM) | cell viability ([2]; 10 nM) | cell viability ([2]; 100 nM) | cell viability ([2]; 1000 nM) | cell viability ([2]; 10000 nM) | cell viability ([3]; 1 nM) | cell viability ([3]; 10 nM) | cell viability ([3]; 100 nM) | cell viability ([3]; 1000 nM) | cell viability ([3]; 10000 nM) | cell viability ([4]; 1 nM) | cell viability ([4]; 10 nM) | cell viability ([4]; 100 nM) | cell viability ([4]; 1000 nM) | cell viability ([4]; 10000 nM) | drug sensitivity score [5] | drug sensitivity score [6] | drug sensitivity score [7] | drug sensitivity score [8] | relative viability EC50 [9] | relative viability EC50 [10] | relative viability EC50 [11] | relative viability EC50 [12] | cell viability ([13]; 1 nM) | cell viability ([13]; 10 nM) | cell viability ([13]; 100 nM) | cell viability ([13]; 1000 nM) | cell viability ([13]; 10000 nM) | drug sensitivity score [14] | relative viability EC50 [15]
Cc1c(I)c(=O)n(-c2ccccc2)n1C [iodoantipyrine] | 105% | 106% | 96.1% | 93.7% | 93.2% | 107% | 104% | 94.8% | 99.4% | 98.7% | 98.8% | 93.3% | 96.9% | 95.3% | 101% | 94.7% | 102% | 95% | 102% | 91.2% | 0 | 0 | 0 | 0 | > 10 µM | > 10 µM | > 10 µM | > 10 µM |  |  |  |  |  |  | 
O=C(NCCS(=O)(=O)c1ccc(C(F)(F)F)cn1)c1ccc(Cl)cc1 [GSK3787] | 104% | 94.8% | 103% | 100% | 97.7% | 99.8% | 95.5% | 102% | 99.7% | 99.8% | 97.8% | 97.3% | 91.2% | 89.9% | 101% | 97.7% | 102% | 117% | 99.6% | 102% | 0 | 0 | 0 | 0 | > 10 µM | > 10 µM | > 10 µM | > 10 µM |  |  |  |  |  |  | 
Clc1ccc2c(NCCNc3ccnc4cc(Cl)ccc34)ccnc2c1 [NSC-5844] | 97.8% | 98.3% | 103% | 96.9% | 96.1% | 98.6% | 102% | 106% | 117% | 76.9% | 88% | 95.2% | 96.2% | 94.5% | 101% |  |  |  |  |  | 0 | 0.4 | 0 |  | > 10 µM | > 10 µM | > 10 µM |  | 97.3% | 96.6% | 100% | 94.9% | 96.7% | 0 | > 10 µM
Nc1n[n+]([O-])c2ccccc2[n+]1[O-] [tirapazamine] | 104% | 103% | 107% | 97.8% | 102% | 99.9% | 102% | 92.3% | 94.8% | 90.4% | 101% | 97.6% | 101% | 95.6% | 90.7% | 92.3% | 91.1% | 93.2% | 88.9% | 63.9% | 0 | 0 | 0 | 2.8 | > 10 µM | > 10 µM | > 10 µM |  | 100% | 98.9% | 99.1% | 97.8% | 99% | 0 | > 10 µM
O=c1[nH]c2ccccc2n1C1CCN(CCOc2ccccc2)CC1 [oxiperomide] | 112% | 101% | 97.1% | 97.9% | 88.2% | 104% | 105% | 87.3% | 104% | 87.2% | 97.4% | 95.8% | 98.6% | 99.4% | 78.7% | 104% | 112% | 95.7% | 98.1% | 64.7% | 0.1 | 0 | 0.7 | 1.9 | > 10 µM | > 10 µM | > 10 µM |  | 98.9% | 108% | 100% | 99.8% | 91.6% | 0 | > 10 µM
Nc1ccc(C(=O)NCC(=O)O)cc1 [4-aminohippuric-acid] | 106% | 91.1% | 109% | 106% | 101% | 97.1% | 99.7% | 100% | 89.5% | 93% | 97.5% | 99.1% | 101% | 100% | 96.2% | 100% | 107% | 99% | 104% | 89.8% | 0 | 0.1 | 0 | 0 | > 10 µM | > 10 µM | > 10 µM | > 10 µM |  |  |  |  |  |  | 
COc1ccc2nc(NC(=O)Nc3ccccc3)sc2c1 [frentizole] | 110% | 99.4% | 93.7% | 107% | 91.1% | 103% | 98.3% | 88% | 88.2% | 87.9% | 100% | 105% | 98.6% | 97.1% | 97.5% | 101% | 105% | 93.8% | 89.7% | 56.8% | 0 | 1.2 | 0 | 3.7 | > 10 µM | > 10 µM | > 10 µM |  | 95.7% | 97.2% | 97% | 95% | 95.3% | 0 | > 10 µM
CC(C)(C)c1ccc(CN2CCN(C(c3ccccc3)c3ccc(Cl)cc3)CC2)cc1 (stereo not drawn) [buclizine] | 95.1% | 98.3% | 94.6% | 87.1% | 92.1% | 108% | 98.3% | 100% | 98.3% | 87.5% | 103% | 102% | 101% | 98.2% | 95.9% | 95.7% | 106% | 99.6% | 91.3% | 73.5% | 0 | 0.2 | 0 | 2.2 | > 10 µM | > 10 µM | > 10 µM |  | 96.7% | 97.6% | 96.8% | 98.9% | 90.8% | 0 | > 10 µM
